Measured values from US12122779B2, “Pyrrolo-pyridazine derivatives as muscarinic M1 receptor positive allosteric modulators” (SUVEN LIFE SCIENCES LIMITED, priority 2018, dated 2024).

Legend:
[1] = target: T1, recombinant human Muscarinic M1 receptor (Homo sapiens, UniProt P11229); test: Allosteric potency EC50 for muscarinic M1 receptor, CHO pCRE-Luc reporter cell-based assay with EC20 of acetylcholine; settings: CHO cells, luciferase activity, in presence of EC20 of acetylcholine, 4 hours
T1 sequence (P11229 1-460): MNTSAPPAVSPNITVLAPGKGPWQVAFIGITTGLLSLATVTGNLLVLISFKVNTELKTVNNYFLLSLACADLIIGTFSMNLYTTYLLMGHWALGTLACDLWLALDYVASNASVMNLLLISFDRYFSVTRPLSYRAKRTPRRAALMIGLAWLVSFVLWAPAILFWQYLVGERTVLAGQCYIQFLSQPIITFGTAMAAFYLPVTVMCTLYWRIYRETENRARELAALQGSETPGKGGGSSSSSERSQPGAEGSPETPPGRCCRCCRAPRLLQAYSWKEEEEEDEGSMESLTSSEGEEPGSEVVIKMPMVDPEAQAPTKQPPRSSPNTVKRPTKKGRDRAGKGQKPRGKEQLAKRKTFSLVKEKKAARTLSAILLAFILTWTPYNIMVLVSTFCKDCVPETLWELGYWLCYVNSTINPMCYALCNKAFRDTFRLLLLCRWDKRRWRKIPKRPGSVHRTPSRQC
Description: Determination of Allosteric Potency EC50 Values for Muscarinic M1 Receptor
A stable CHO cell line expressing recombinant human Muscarinic M1 receptor and pCRE-Luc reporter system was used for cell-based assay. The assay offers a non-radioactive based approach to determine binding of a compound to GPCRs. In this specific assay, the level of intracellular cyclic AMP which is modulated by activation or inhibition of the receptor is measured. The recombinant cells harbor luciferase reporter gene under the control of cyclic AMP response element.
The above cells were grown in 96 well clear bottom white plates in Hams F12 medium containing 10% fetal bovine serum (FBS). Prior to the addition of compounds or standard agonist, cells were serum starved overnight. Increasing concentrations of test compounds were added along with EC20 of acetylcholine in OptiMEM medium to the cells. The incubation was continued at 37° C. in CO2 incubator for 4 hours. Medium was removed and cells were washed with phosphate buffered saline. The cells were lysed and luciferase activity was measured in a Luminometer. Luminescence units were plotted against the compound concentrations using Graphpad software.

Male Swiss mice = test: Effect on colonic transit; format: in vivo; settings: doses of 1 and 3 mg/kg, p.o., carmine dye, 3 hours after dye
Description: Effect on Colonic Transit
Male Swiss mice of body weight ˜20-30 g were fasted for 16 hours with free access to water prior to the experiment. Mice were administrated example 1 or vehicle, 30 min after administration of 0.5 ml of carmine dye solution. Mice were sacrificed 3 hours after dye administration and the distance traveled by the dye from proximal colon was measured. Colonic transit was expressed as % colonic transit=100×(length of colon in which carmine moved/total length of colon).

[2] = Rodent brain penetration study; format: in vivo, Male Wistar rats; settings: male, Wistar, brain and plasma, po; rat, 3 mg/kg p.o., brain-plasma ratio; read-out: Single dose Rat Brain Penetration (Cb/Cp) at 3 mg/kg, p.o.
Description: Rodent Brain Penetration Study
Male Wistar rats (260±40 grams) were used as experimental animals. Three animals were housed in each cage. Animals were given water and food ad libitum throughout the experiment and maintained on a 12 h light/dark cycle.
Brain penetration was determined in discrete manner in rats. One day prior to dosing day, male Wistar rats were acclimatized and randomly grouped according to their weight. At each time point (0.50, 1 and 2 h) n=3 animals were used.
The test compounds were suitably preformulated and administered orally at (free base equivalent) 3 mg/kg. Blood samples were removed via cardiac puncture by using isoflurane anesthesia. The animals were sacrificed to collect brain tissue. Plasma was separated and brain samples were homogenized and stored frozen at −20° C. until analysis. The concentrations of the test compounds in plasma and brain were determined using LC-MS/MS method.
The test compounds were quantified in plasma and brain homogenate by qualified LC-MS/MS method using suitable extraction technique. The test compounds were quantified in the calibration range of 1-500 ng/mL in plasma and brain homogenate. Study samples were analyzed using calibration samples in the batch and quality control samples spread across the batch. Extent of brain-plasma ratio (Cb/Cp) was calculated.

[3] = Rodent pharmacokinetic study; format: in vivo, Male Wistar rats; settings: male, Wistar, plasma, rat; for bioavailability: oral 3 mg/kg vs intravenous 1 mg/kg, read-out: F (%) Bioavailability
Description: Rodent Pharmacokinetic Study
Male Wistar rats (260±50 grams) were used as experimental animals. Animals were housed individually in polypropylene cage. Two days prior to study, male Wistar rats were anesthetized with isoflurane for surgical placement of jugular vein catheter. Rats were randomly divided for oral (3 mg/kg) and intravenous (1 mg/kg) dosing (n=3/group) and fasted overnight before oral dosing (p.o.). However, rats allocated to intravenous dosing food and water was provided ad libitum.
At pre-determined point, blood was collected through jugular vein and replenished with an equivalent volume of normal saline. Collected blood was transferred into a labeled eppendorf tube containing 10 μL of heparin as an anticoagulant. Typically blood samples were collected at following time points: 0.08, 0.25, 0.5, 1, 2, 4, 6, 8, and 24 h post dose. Blood was centrifuged at 4000 rpm for 10 minutes. Plasma was separated and stored frozen at −80° C. until analysis. The concentrations of the test compounds were quantified in plasma by qualified LC-MS/MS method using suitable extraction technique. The test compounds were quantified in the calibration range around 1-1000 ng/mL in plasma. Study samples were analyzed using calibration samples in the batch and quality control samples spread across the batch.
Pharmacokinetic parameters Cmax, AUCt, T1/2, Clearance and Bioavailability (F) were calculated by non-compartmental model using standard non-compartmental model by using Phoenix WinNonlin 6.0.4 version Software package.

Male Wistar rats [4] = test: Object recognition task model; format: in vivo; settings: rat, 3 mg/kg, p.o.
Description: Object Recognition Task Model
(§1) Male Wistar rats (8-10 weeks old) were used as experimental animals. Four animals were housed in each cage. Animals were kept on 20% food deprivation from a day prior to experimentation. Water was provided ad libitum throughout the experiment. Animals were maintained on a 12 h light/dark cycle in temperature and humidity controlled room. The experiment was carried out in a circular or square arena made up of acrylic. Rats were habituated to individual arenas for up to 1 hour in the absence of any objects on day 1.
One group of 12 rats received vehicle and another set of animals received test compounds, before familiar (T1) and choice (T2) trials. During the familiarization phase, (T1), the rats were placed individually in the arena for 3 minutes, in which two identical objects (a1 and a2) were positioned 10 cm from the wall. 24 h after T1, trial for long-term memory test was performed. The same rats were placed in the same arena as they were placed in T1 trial. During the choice phase (T2) rats were allowed to explore the arena for 3 minutes in presence of a copy of familiar object (a3) and one novel object (b). During the T1 and T2 trial, explorations of each object (defined as sniffing, licking, chewing or having moving vibrissae whilst directing the nose towards the object at a distance of less than 1 cm) were recorded using stopwatch. • T1 is the total time spent exploring the familiar objects (a1+a2). • T2 is the total time spent exploring the familiar object and novel object (a3+b).
The object recognition test was performed as described in Behav. Brain Res., 1988, 31, 47-59.

Male Wistar rats [5] = test: Object recognition task model (combination study with donepezil); format: in vivo; settings: rat, combination of sub efficacious doses with donepezil (FIG. 1)
Description: Object Recognition Task Model (Combination Study)
The cognition enhancing properties of compounds of this invention were estimated by using this model.
as §1, with “an open field” for “a circular or square arena”, “arenas (open field)” for “arenas”, “20 minutes” for “up to 1 hour”, “1. […]” for “1.”
The same rats were placed in the same arena as they were placed in T1 trial. […] During the T1 and T2 trial, explorations of each object (defined as sniffing, licking, chewing or having moving vibrissae whilst directing the nose towards the object at a distance of less than 1 cm) were recorded using stopwatch. • T1 is the total time spent exploring the familiar objects (a1+a2). • T2 is the total time spent exploring the familiar object and novel object (a3+b). • Discriminative index=Time spent with novel object/(time spent with novel and familiar object). […]

EC50 [1] | Kp [2] | AUC(0-t) ([3]; intravenous (bolus), 1 mg/kg) | clearance ([3]; intravenous (bolus), 1 mg/kg) | half-life ([3]; intravenous (bolus), 1 mg/kg) | bioavailability [3] | AUC(0-t) ([3]; oral (gavage), 3 mg/kg) | Cmax ([3]; oral (gavage), 3 mg/kg) | half-life ([3]; oral (gavage), 3 mg/kg) | SMILES | Colonic transit (Male Swiss mice) | Inference (Male Wistar rats [4]) | Exploration time mean ± S.E.M, Familiar object (Male Wistar rats [4]; choice trial 24 h after T1) | Exploration time mean ± S.E.M, Novel object (Male Wistar rats [4]; choice trial 24 h after T1) | Procognitive effect in object recognition task (Male Wistar rats [5])
692 nM | 0.15 ± 0.02 | 7240 ± 890 ng·h/mL | 2.31 ± 0.29 mL/min/kg | 3.42 ± 0.29 h | 60 ± 4% | 13000 ± 954 ng·h/mL | 1860 ± 185 ng/mL | 3.74 ± 0.15 h | Cn1cc(-c2ccc(Cc3cc(C(=O)N[C@H]4CCOC[C@@H]4O)nn4cccc34)cc2)cn1 (stereo in doubt) [Example 38, N-[3-Hydroxy-tetrahydropyran-4-yl] 4-[4-(1-methyl-1H-pyrazol-4-yl)-benzyl]-pyrrolo[1,2-b]pyridazine-2-carboxamide] | increased the colonic transit |  |  |  | 
1850 nM | 1.42 ± 0.1 | 677 ± 194 ng·h/mL | 24 ± 6 mL/min/kg | 0.7 ± 0.1 h | 13 ± 1% | 259 ± 22 ng·h/mL | 113 ± 11 ng/mL | 2.5 ± 0.5 h | O=C(N[C@H]1CCCC[C@@H]1O)c1cc(Cc2ccccc2)c2cccn2n1 [Example 4, N-[(1S,2S)-2-Hydroxycyclohexyl]-4-benzyl-pyrrolo[1,2-b]pyridazine-2-carboxamide] |  | Active | 16.24 ± 1.09 s | 25.9 ± 2.54 s | Procognitive effects were observed
